Measurements published in US7981903B2, “2-[2-{phenylamino}-1H-pyrrolo[2,3-D]pyrimidin-4-yl)amino] benzamide derivatives as IGF-1R inhibitors for the treatment of cancer” (GlaxoSmithKline LLC, priority 2007, dated 2011).
“And” between values parts separate entries of the source, which are not always exact repeats. Equal values may be shown once.

How the values were obtained:
human IGF1R (hIGF1R) = biological target: T1, human IGF1R (hIGF1R) (Homo sapiens, UniProt P08069); test: TR-FRET kinase assay of purified hIGF1R; assay type: biochemical; settings: activated hIGF1R 0.5 nM, 10 μM ATP, values given as pIC50 category, read-out: IGF-1R pIC50 (converted)
T1 construct: containing amino acid residues 957-1367 of human IGF1R; made in house; host or cells: Sf9 cells (baculovirus)
T1 sequence (P08069 957-1367): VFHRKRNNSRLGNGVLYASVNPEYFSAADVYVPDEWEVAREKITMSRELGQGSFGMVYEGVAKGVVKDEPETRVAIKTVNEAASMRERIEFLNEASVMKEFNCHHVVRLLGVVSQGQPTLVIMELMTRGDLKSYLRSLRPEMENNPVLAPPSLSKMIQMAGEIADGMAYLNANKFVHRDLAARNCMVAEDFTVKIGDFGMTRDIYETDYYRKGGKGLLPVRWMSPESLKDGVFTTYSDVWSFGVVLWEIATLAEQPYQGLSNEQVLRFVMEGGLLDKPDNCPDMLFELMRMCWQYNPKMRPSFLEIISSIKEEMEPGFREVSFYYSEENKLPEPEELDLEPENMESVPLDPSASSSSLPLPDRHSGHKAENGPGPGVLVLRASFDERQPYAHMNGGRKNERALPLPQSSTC

human IR (hIR) = biological target: T2, human IR (hIR) (Homo sapiens, UniProt P06213); test: TR-FRET kinase assay of purified hIR; assay type: biochemical; settings: activated hIR 0.5 nM, 10 μM ATP, values given as pIC50 category
T2 construct: containing amino acid residues 979-1382 of human IR; made in house; host or cells: Sf9 cells (baculovirus), same process as hIGF1R
T2 sequence (P06213 979-1382): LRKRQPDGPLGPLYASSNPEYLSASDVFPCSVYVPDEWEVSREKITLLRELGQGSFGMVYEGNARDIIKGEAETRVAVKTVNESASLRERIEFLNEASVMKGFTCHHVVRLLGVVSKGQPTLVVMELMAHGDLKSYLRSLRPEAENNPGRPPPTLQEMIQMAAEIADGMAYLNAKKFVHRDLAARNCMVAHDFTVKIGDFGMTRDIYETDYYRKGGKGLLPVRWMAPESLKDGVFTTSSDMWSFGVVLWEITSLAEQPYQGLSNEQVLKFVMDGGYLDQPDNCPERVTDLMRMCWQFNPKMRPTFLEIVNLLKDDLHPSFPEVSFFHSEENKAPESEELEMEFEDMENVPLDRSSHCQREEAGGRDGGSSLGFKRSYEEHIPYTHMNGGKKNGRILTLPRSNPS

ALK = ALK (Homo sapiens, UniProt Q9UM73); test: ALK enzyme assay (HTRF); assay type: biochemical; settings: 0.25 nM ALK, 15.0 μM ATP, values given as pIC50 category
Sequence of ALK (Q9UM73 19-1620): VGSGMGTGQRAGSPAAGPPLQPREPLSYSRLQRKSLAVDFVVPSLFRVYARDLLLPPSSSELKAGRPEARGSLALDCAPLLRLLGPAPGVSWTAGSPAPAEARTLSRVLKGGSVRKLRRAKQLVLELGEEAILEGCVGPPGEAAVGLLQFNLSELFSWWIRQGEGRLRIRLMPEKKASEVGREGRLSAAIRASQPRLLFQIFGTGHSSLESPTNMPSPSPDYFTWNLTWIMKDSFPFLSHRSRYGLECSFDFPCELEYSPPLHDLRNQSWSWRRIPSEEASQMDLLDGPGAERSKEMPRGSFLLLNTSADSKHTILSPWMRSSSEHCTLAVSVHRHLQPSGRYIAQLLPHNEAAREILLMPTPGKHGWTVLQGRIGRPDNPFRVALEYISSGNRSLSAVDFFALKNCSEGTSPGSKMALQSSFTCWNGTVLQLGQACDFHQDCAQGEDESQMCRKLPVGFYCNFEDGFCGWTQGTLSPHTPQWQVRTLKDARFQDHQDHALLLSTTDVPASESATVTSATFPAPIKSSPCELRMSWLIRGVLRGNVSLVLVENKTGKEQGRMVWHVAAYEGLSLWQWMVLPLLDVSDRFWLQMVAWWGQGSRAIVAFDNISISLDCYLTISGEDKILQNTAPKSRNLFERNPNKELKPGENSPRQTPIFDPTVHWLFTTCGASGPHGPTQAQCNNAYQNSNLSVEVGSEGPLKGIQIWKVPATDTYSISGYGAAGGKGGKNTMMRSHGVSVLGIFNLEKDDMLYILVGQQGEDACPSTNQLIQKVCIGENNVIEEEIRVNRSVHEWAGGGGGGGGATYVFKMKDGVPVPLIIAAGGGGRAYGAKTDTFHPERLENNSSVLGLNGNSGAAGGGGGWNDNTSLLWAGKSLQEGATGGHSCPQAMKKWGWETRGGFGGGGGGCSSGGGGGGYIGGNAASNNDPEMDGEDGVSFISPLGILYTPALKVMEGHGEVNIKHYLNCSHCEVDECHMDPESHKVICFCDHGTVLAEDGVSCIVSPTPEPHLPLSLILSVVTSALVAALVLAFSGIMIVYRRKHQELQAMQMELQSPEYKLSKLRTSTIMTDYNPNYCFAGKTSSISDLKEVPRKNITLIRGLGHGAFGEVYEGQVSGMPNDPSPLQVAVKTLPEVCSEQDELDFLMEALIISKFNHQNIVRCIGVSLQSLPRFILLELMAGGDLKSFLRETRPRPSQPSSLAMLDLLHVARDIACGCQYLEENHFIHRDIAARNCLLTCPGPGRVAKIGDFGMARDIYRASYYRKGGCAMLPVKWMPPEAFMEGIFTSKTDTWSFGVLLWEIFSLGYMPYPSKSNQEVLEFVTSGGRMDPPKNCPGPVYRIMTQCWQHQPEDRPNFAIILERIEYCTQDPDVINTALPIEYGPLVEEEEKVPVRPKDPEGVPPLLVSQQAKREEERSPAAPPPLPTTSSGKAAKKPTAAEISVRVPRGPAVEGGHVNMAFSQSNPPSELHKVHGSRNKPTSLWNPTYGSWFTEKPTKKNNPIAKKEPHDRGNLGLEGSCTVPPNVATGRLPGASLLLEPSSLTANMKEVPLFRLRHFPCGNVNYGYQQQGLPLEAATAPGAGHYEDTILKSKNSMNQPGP
Method in brief: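 Final compound range 0.00017 to 10 μM (twelve 1:3 dilutions). Kinase reaction with ATP and biotinylated synthetic peptide runs 120 min at 20° C, stopped with EDTA; phosphotyrosine detected by HTRF after 60 min. Inhibition referenced to DMSO (1%) and EDTA (0.1 M) controls, curve-fitted.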

Colo205 = test: Inhibition of cell proliferation (CellTiter-Glo or InCell analyzer), Colo205; assay type: cell-based; settings: Homo sapiens, COLO 205, 72 h / 3 days, values given as IC50 category
Method: (§1) Cell proliferation was measured by either CellTiter-Glo (measures cellular ATP level as a surrogate for total cell number) or by InCell analyzer (counts number of nuclei as a measure of cell number).
(§2) For CellTiter-Glo assay, exponentially growing cell lines of different tumor origins, cultured in appropriate media containing 10% fetal bovine serum at 37° C. in a 5% CO2 incubator, were plated at low density (less than 2000cells/well) in 96-well plates. Twenty four hours post-plating, cells were treated with different concentrations of test compounds ranging from 30 uM to 1.5 nM. Several wells were left untreated as a control. Seventy two hours post-treatment, cell numbers were determined using 50-100 ul per well of CellTiter-Glo (Promega #G7573). Plates were incubated at 37° C. for 30 minutes and the chemiluminescent signal was read on the Victor V or Envison 2100 reader.
(§3) For InCell Analyser assay, various cell lines of different tumor origins were grown to 70-80% confluency in appropriate culture media containing 10% fetal bovine serum at 37° C. in a 5% CO2 incubator. On day −1, cells were seeded at 2 densities in 384-well plates and incubated at 37° C. overnight. Stock compound plates were prepared in advance which contained dimethyl sulfoxide (DMSO) alone and a 9-point half-log decreasing dose range of the compound in DMSO. The compound plates were stored at −80° C. and each plate was only thawed once and used. On day 0, the main assay plates received compound or DMSO via a sonic delivery system (ECHO). The highest final concentration of compound of the dose range in the culture plates was 10 uM. These plates were cultured at 37° C. for 3 days. […] On day 3, the compound treated plates were stained and fixed to measure proliferation, apoptosis, and mitotic index using an InCelL1000 analyser. A nuclear stain was used to identify cells in the wells. By counting the number of nuclei, the proliferation index of compound treated groups were calculated as a percentage relative to the DMSO control, which was set to 100%. The IC50 values were calculated using model 205 in ExcelFit.
(§4) IC50 (nM) values for compounds of select examples were categorized by relative inhibition of cell proliferation.

NCI-H929 = test: Inhibition of cell proliferation (CellTiter-Glo or InCell analyzer), NCI-H929; assay type: cell-based; settings: Homo sapiens, 72 h / 3 days, values given as IC50 category
Method: as §1, §2, §3, §4

[1] = biological target: T3, NIH-3T3 cells overexpressing human IGF-1R (Homo sapiens, UniProt P08069); test: IGF-1R cellular autophosphorylation (DELFIA); assay type: cell-based
T3 construct: expressed in transfected cells; host or cells: NIH-3T3 (mouse fibroblasts)
T3 sequence (P08069 31-1367): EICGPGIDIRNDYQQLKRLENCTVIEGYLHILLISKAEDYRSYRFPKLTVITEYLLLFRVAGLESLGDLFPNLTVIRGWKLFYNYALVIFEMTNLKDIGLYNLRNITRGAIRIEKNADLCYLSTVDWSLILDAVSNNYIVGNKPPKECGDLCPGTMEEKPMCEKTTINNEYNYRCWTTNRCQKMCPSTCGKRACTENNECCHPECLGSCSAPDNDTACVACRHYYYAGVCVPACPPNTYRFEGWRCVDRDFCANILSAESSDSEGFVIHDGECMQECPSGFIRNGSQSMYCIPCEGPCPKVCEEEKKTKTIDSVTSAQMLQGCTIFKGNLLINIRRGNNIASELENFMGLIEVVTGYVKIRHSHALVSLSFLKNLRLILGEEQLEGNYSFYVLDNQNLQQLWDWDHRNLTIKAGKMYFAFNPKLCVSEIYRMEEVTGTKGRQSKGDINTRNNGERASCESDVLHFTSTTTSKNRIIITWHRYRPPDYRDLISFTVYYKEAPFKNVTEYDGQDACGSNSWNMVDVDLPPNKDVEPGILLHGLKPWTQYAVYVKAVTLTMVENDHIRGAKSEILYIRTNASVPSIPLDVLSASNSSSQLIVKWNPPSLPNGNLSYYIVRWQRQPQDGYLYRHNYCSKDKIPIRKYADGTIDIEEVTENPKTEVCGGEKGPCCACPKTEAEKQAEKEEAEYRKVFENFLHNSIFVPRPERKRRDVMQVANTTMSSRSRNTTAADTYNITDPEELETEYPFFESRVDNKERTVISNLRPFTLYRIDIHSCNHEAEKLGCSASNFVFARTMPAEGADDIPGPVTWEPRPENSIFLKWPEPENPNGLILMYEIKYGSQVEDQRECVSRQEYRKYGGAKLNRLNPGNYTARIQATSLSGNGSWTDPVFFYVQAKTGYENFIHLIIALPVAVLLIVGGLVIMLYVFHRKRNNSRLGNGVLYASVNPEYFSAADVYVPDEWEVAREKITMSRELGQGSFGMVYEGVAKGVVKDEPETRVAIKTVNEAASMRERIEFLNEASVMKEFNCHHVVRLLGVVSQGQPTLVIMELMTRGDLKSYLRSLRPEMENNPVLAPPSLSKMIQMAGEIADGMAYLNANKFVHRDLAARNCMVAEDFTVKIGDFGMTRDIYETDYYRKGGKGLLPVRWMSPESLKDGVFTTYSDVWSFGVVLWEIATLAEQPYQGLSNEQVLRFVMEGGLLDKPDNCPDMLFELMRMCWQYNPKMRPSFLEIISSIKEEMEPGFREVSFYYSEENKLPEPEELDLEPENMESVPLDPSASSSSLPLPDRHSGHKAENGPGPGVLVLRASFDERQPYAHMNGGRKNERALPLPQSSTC
Method in brief: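 Receptor autophosphorylation measured by DELFIA, capturing IGF-1R or IRβ and detecting with europium anti-pTyr, reported as percent of IGF-1- or insulin-stimulated signal. Compounds (30 uM to 1.5 nM) added 2 h before ligand, then 15 min stimulation (IGF-1 30 ng/ml or insulin 3 ug/ml).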

[2] = biological target: T4, NIH-3T3 cells overexpressing human IR (Homo sapiens, UniProt P06213); test: IR cellular autophosphorylation (DELFIA); assay type: cell-based; settings: 2 h compound, insulin 3 ug/ml for 15 minutes, IC50 category
T4 construct: expressed in transfected cells; host or cells: NIH-3T3 (mouse fibroblasts)
T4 sequence (P06213 28-1382): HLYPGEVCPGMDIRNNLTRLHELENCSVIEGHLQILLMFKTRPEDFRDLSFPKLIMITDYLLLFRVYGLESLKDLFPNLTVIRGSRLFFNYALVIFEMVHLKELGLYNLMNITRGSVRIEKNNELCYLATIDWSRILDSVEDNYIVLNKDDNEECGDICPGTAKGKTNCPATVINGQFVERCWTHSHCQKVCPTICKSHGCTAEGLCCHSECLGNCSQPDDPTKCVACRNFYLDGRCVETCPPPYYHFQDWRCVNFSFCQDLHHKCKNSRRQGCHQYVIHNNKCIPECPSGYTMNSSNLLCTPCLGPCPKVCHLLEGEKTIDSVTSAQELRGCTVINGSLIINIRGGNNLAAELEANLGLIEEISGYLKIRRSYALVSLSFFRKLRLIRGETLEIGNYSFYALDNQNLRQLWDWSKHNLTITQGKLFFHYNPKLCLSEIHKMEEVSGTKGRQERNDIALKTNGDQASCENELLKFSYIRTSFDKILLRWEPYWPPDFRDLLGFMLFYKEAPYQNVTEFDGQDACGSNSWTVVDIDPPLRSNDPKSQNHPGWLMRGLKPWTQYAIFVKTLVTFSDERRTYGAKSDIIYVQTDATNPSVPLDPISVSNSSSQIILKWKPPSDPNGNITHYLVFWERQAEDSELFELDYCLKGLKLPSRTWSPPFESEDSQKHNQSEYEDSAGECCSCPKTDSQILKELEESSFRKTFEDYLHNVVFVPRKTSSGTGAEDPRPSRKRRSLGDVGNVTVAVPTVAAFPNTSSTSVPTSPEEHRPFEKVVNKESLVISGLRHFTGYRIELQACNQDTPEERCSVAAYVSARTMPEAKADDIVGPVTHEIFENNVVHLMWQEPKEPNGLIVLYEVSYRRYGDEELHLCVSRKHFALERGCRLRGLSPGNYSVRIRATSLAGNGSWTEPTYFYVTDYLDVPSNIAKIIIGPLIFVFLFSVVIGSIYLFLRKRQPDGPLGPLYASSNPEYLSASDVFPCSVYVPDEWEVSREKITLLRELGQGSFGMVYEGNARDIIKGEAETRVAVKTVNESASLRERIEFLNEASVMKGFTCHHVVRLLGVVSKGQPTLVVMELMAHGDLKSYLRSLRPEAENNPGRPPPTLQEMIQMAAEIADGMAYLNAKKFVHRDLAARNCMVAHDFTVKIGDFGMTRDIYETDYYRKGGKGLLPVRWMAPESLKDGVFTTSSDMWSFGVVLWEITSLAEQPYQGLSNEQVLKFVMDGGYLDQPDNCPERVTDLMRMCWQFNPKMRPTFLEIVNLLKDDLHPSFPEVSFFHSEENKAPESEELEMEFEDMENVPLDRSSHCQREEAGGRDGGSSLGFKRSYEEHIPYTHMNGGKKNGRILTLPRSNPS
Method: NIH-3T3 cells overexpressing human IGF-1R or IR were plated in 96-well plates (10,000 cells/well) in culture media containing 10% fetal bovine serum and incubated at 37° C. in a 5% CO2 incubator. Twenty four hours post-plating, cells were treated with different concentrations of test compounds ranging from 30 uM to 1.5 nM. Two hours after compound addition, cells were stimulated with either human IGF-1 (30 ng/ml) or insulin (3 ug/ml) for 15 minutes. Cell lysates are analyzed for phosphorylated receptors using dissociation enhanced lanthanide fluor-immuno assay (DELFIA) with anti-IGF-1R (MAB391, R&D Systems, Minneapolis, Minn.) or anti-IRβ (sc-711, Santa Cruz Biotechnology, Santa Cruz, Calif.) capture antibody and europium-labeled anti-pTyr antibody (Eu-N1 PT66, Perkin Elmer, Waltham, Mass.) for detection. The fluorescence signal for cells treated with compounds was expressed as percent relative to 100% stimulation (IGF-1 or insulin stimulated signal).

Row | Compound | IC50 (human IGF1R (hIGF1R)) [nM] | IC50 (human IR (hIR)) [nM] | IC50 (ALK) | IC50 (Colo205) [nM] | IC50 (NCI-H929) [nM] | IC50 [1] [nM] | IC50 [2] [nM]
1 | CNC(=O)c1c(F)cccc1Nc1nc(Nc2cc3c(cc2OC)CCN3C(=O)[C@@H](C)N(C)C)nc2[nH]ccc12 [Example 195, 2-[(2-{[1-(N,N-dimethyl-D-alanyl)-5-(methyloxy)-2,3-dihydro-1H-indol-6-yl]amino}-1H-pyrrolo[2,3-d]pyrimidin-4-yl)amino]-6-fluoro-N-methylbenzamide] | 1.26 to 3.98 | 1.26 to 3.98 | 1.26 to 3.98 nM | 250 to 1000 | 250 to 1000 |  | 
2 | CNC(=O)c1c(F)cccc1Nc1nc(Nc2cc3c(cc2C)CCCN3C(=O)CN(C)C)nc2[nH]ccc12 [Example 247, 2-[(2-{[1-(N,N-dimethylglycyl)-6-methyl-1,2,3,4-tetrahydro-7-quinolinyl]amino}-1H-pyrrolo[2,3-d]pyrimidin-4-yl)amino]-6-fluoro-N-methylbenzamide] | 5.01 to 200 |  |  | > 1000 | 250 to 1000 |  | 
3 | CNC(=O)c1c(F)cc(Cl)cc1Nc1nc(Nc2cc3c(cc2OC)CCCN3C(=O)CN(C)C)nc2[nH]ccc12 [Example 172, 4-chloro-2-[(2-{[1-(N,N-dimethylglycyl)-6-(methyloxy)-1,2,3,4-tetrahydro-7-quinolinyl]amino}-1H-pyrrolo[2,3-d]pyrimidin-4-yl)amino]-6-fluoro-N-methylbenzamide] |  |  | 1.26 to 3.98 nM | 250 to 1000 | < 250 |  | 
4 | CNC(=O)c1c(F)cccc1Nc1nc(Nc2cc3c(cc2OC)C(C)(C)CCN3C(=O)CN2CCCC2)nc2[nH]ccc12 [Example 224, 2-[(2-{[4,4-dimethyl-6-(methyloxy)-1-(1-pyrrolidinylacetyl)-1,2,3,4-tetrahydro-7-quinolinyl]amino}-1H-pyrrolo[2,3-d]pyrimidin-4-yl)amino]-6-fluoro-N-methylbenzamide] | 0.251 to 1 | 0.251 to 1 | 1.26 to 3.98 nM and 0.251 to 1 nM | 250 to 1000 | < 250 |  | 
5 | COc1cc2c(cc1Nc1nc(Nc3cccc(F)c3C(N)=O)c3cc[nH]c3n1)N(C(=O)CN1CCCC1)CCC2(C)C [Example 223, 2-[(2-{[4,4-dimethyl-6-(methyloxy)-1-(1-pyrrolidinylacetyl)-1,2,3,4-tetrahydro-7-quinolinyl]amino}-1H-pyrrolo[2,3-d]pyrimidin-4-yl)amino]-6-fluorobenzamide] | 0.251 to 1 | 0.251 to 1 | 0.251 to 1 nM | < 250 | < 250 |  | 
6 | CNC(=O)c1c(F)cccc1Nc1nc(Nc2cc3c(cc2OC)CCN3C(=O)CN(C)C)nc2[nH]ccc12 [Example 116, 2-[(2-{[1-(N,N-dimethylglycyl)-5-(methyloxy)-2,3-dihydro-1H-indol-6-yl]amino}-1H-pyrrolo[2,3-d]pyrimidin-4-yl)amino]-6-fluoro-N-methylbenzamide] |  |  |  | 250 to 1000 | < 250 |  | 
7 | CCc1cc(N2CCN(C(C)C)CC2)ccc1Nc1nc(Nc2cc(F)ccc2C(N)=O)c2cc[nH]c2n1 [Example 69, 2-{[2-({2-ethyl-4-[4-(1-methylethyl)-1-piperazinyl]phenyl}amino)-1H-pyrrolo[2,3-d]pyrimidin-4-yl]amino}-4-fluorobenzamide] | 1.26 to 3.98 | 1.26 to 3.98 |  | 250 to 1000 |  | 100 to 500 | 100 to 500
8 | CNC(=O)c1c(Nc2nc(Nc3cc4c(cc3OC)CCN4C(=O)CN(C)C)nc3[nH]ccc23)ccc(F)c1F [Example 160, 6-[(2-{[1-(N,N-dimethylglycyl)-5-(methyloxy)-2,3-dihydro-1H-indol-6-yl]amino}-1H-pyrrolo[2,3-d]pyrimidin-4-yl)amino]-2,3-difluoro-N-methylbenzamide] | 1.26 to 3.98 | 1.26 to 3.98 | 1.26 to 3.98 nM | 250 to 1000 | < 250 |  | 
9 | COc1cc2c(cc1Nc1nc(Nc3cccc(F)c3C(N)=O)c3cc[nH]c3n1)NC(=O)CC2(C)C [Example 227, 2-[(2-{[4,4-dimethyl-6-(methyloxy)-2-oxo-1,2,3,4-tetrahydro-7-quinolinyl]amino}-1H-pyrrolo[2,3-d]pyrimidin-4-yl)amino]-6-fluorobenzamide] | 1.26 to 3.98 | 0.251 to 1 | 1.26 to 3.98 nM | 250 to 1000 | 250 to 1000 |  | 
10 | CNC(=O)c1c(F)cccc1Nc1nc(Nc2cc3c(cc2OC)C(C)(C)CCN3C(=O)CN(C)C)nc2[nH]ccc12 [Example 226, 2-[(2-{[1-(N,N-dimethylglycyl)-4,4-dimethyl-6-(methyloxy)-1,2,3,4-tetrahydro-7-quinolinyl]amino}-1H-pyrrolo[2,3-d]pyrimidin-4-yl)amino]-6-fluoro-N-methylbenzamide] | 0.251 to 1 | 0.251 to 1 |  | 250 to 1000 | < 250 |  | 
11 | CNC(=O)c1c(F)cccc1Nc1nc(Nc2cc3c(cc2OC)C(C)(C)CC(=O)N3)nc2[nH]ccc12 [Example 228, 2-[(2-{[4,4-dimethyl-6-(methyloxy)-2-oxo-1,2,3,4-tetrahydro-7-quinolinyl]amino}-1H-pyrrolo[2,3-d]pyrimidin-4-yl)amino]-6-fluoro-N-methylbenzamide] | 1.26 to 3.98 | 1.26 to 3.98 | 1.26 to 3.98 nM | > 1000 | 250 to 1000 |  | 
12 | COc1cc2c(cc1Nc1nc(Nc3cccc(F)c3C(N)=O)c3cc[nH]c3n1)N(C(=O)CN(C)C)CCC2(C)C [Example 225, 2-[(2-{[1-(N,N-dimethylglycyl)-4,4-dimethyl-6-(methyloxy)-1,2,3,4-tetrahydro-7-quinolinyl]amino}-1H-pyrrolo[2,3-d]pyrimidin-4-yl)amino]-6-fluorobenzamide] | 0.251 to 1 | 0.251 to 1 | 0.251 to 1 nM | < 250 | < 250 |  | 
13 | COc1cc2c(cc1Nc1nc(Nc3cc(Cl)cc(F)c3C(N)=O)c3cc[nH]c3n1)N(C(=O)CN(C)C)CCC2 [Example 171, 4-chloro-2-[(2-{[1-(N,N-dimethylglycyl)-6-(methyloxy)-1,2,3,4-tetrahydro-7-quinolinyl]amino}-1H-pyrrolo[2,3-d]pyrimidin-4-yl)amino]-6-fluorobenzamide] |  |  | 0.251 to 1 nM | < 250 | < 250 |  | 
14 | COc1cc(N2CCOC[C@@H]2C)ccc1Nc1nc(Nc2cc(F)cc(F)c2C(N)=O)c2cc[nH]c2n1 [Example 90, 2,4-difluoro-6-[(2-{[4-[(3S)-3-methyl-4-morpholinyl]-2-(methyloxy)phenyl]amino}-1H-pyrrolo[2,3-d]pyrimidin-4-yl)amino]benzamide] | 1.26 to 3.98 | 1.26 to 3.98 |  | 250 to 1000 |  | < 100 | < 100
